According to PubChem BioAssay (NCI):
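Results reflect a 48-hour exposure of cells in 96-well plates to compound at five concentrations. TGI is the concentration that stops growth completely.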

Tests used:
Test in all cases: NCI-60 cell line screen, 48 h
[1] = tested on: PC-3 prostate
[2] = tested on: T-47D breast
[3] = tested on: LOX IMVI melanoma
[4] = tested on: OVCAR-5 ovarian
[5] = tested on: EKVX NSCLC
[6] = tested on: SR leukemia
[7] = tested on: NCI-H23 lung
[8] = tested on: SK-MEL-5 melanoma
[9] = tested on: OVCAR-4 ovarian
[10] = tested on: MALME-3M melanoma
[11] = tested on: UACC-257 melanoma
[12] = tested on: CCRF-CEM leukemia
[13] = tested on: SNB-19 CNS
[14] = tested on: SF-295 CNS
[15] = tested on: UACC-62 melanoma
[16] = tested on: ACHN renal
[17] = tested on: IGROV1 ovarian
[18] = tested on: SK-MEL-2 melanoma
[19] = tested on: SF-268 CNS
[20] = tested on: MOLT-4 leukemia

Row | SMILES | TGI [1] [µM] | TGI [2] [µM] | TGI [3] [µM] | TGI [4] [µM] | TGI [5] [µM] | TGI [6] [µM] | TGI [7] [µM] | TGI [8] [µM] | TGI [9] [µM] | TGI [10] [µM] | TGI [11] [µM] | TGI [12] [µM] | TGI [13] [µM] | TGI [14] [µM] | TGI [15] [µM] | TGI [16] [µM] | TGI [17] [µM] | TGI [18] [µM] | TGI [19] [µM] | TGI [20] [µM]
1 | COC1CC(OC2C(C)OC(OC3C(C)OC(OC4C(O)CC(O[C@H]5CC[C@@]6(C)C(=CC[C@]7(O)[C@@H]6C[C@@H](OC(=O)/C=C/c6ccccc6)[C@@]6(C)[C@]7(O)CC[C@@]6(O)C(C)=O)C5)OC4C)CC3OC)CC2OC)OC(C)C1O (stereo not given in full) | > 6.25 | > 6.25 | > 6.25 | > 6.25 | > 6.25 | > 6.25 | > 6.25 | > 6.25 | > 6.25 | > 6.25 | > 6.25 | > 6.25 | > 6.25 | > 6.25 | > 6.25 | > 6.25 | > 6.25 | > 6.25 | > 6.25 | > 6.25
2 | O=C1c2ccccc2C(=O)[C@@]23O[C@@]12C1(Oc2cccc4cccc(c24)O1)[C@@H]1O[C@@H]1[C@@H]3O | 34.3 | 29.8 | 16.5 | 39.3 | 54.2 | > 100 | 29.6 | > 64.3 | 17.4 | 30.3 | 40.1 | > 38.7 | 28.8 | 26 | 27.2 | 27.7 | 27.4 | 42.1 | 25.4 | 24.5
3 | COc1cc(OC)c2c(=O)cc(-c3ccccc3F)[nH]c2c1 | > 100 | > 100 | > 100 | > 100 | > 100 | > 100 | > 100 | > 100 | 53.3 | > 100 | > 100 | > 100 | 73.6 | > 100 | > 100 | > 100 | > 100 | > 100 | > 100 | > 100
4 | N#CCCCC[N+]12CN3CN(CN(C3)C1)C2 | > 100 | > 100 | > 100 | > 100 | > 100 | > 100 | > 100 | > 100 | > 100 | > 100 | > 100 | > 100 | > 100 | > 100 | > 100 | > 100 | > 100 | > 100 | > 100 | > 100
5 | COc1c(C)c2c(c(=O)c3c(C)cccc3n2C)c2c1c(=O)c1c(C)cccc1n2C | > 10 | > 10 | > 10 | > 10 | > 10 | > 10 | > 10 | > 10 | > 10 | > 10 | > 10 | > 10 | > 10 | > 10 | > 10 | > 10 | > 10 | > 10 | > 10 | > 10
